16 compounds from PubChem BioAssay (NCI) can be followed below.

Holding throughout (test): growth of human tumour cells (NCI), 48 h
In experiment [1] the test system is HL-60(TB) leukemia.
Experiment [2] deals with TK-10 renal.
The test system of experiment [3] is RPMI-8226 leukemia.
Experiment [4] concerns U251 CNS.
In experiment [5] the test system is OVCAR-3 ovarian.
For experiment [6], the system named is SK-OV-3 ovarian.
In experiment [7] the test system is HOP-92 NSCLC.
Experiment [8] relates to SK-MEL-2 melanoma.
Experiment [9] deals with HOP-62 NSCLC.
In experiment [10] the test system is A549 NSCLC.

SMILES strings stand for the structures.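 A five-concentration, 48-hour dose response in 96-well plates underlies each endpoint, interpolated linearly between surrounding concentrations. GI50 is the concentration that inhibits growth by half. TGI is the concentration that stops growth completely.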

With `N#CC12C3C4CC5C6C4C1C6C(O)(C53)N2Cc1ccccc1` (stereo not given), the TGI in experiment [1], in experiment [2], in experiment [3], in [4], in experiment [5] and in experiment [6] was more than 100 µM each time. For the same compound, the TGI in [7], in [8], in experiment [9] and in [10] was more than 100 µM throughout.

As for `C=C1C(=O)O[C@H]2[C@H]1CC/C(Cn1cc(-c3ccccc3)nn1)=C\CC[C@@]1(C)O[C@@H]21`, the GI50 in [1] is 1.49 µM; in experiment [2], 1.21 µM; in experiment [3], 1.71 µM; in experiment [4], 7.96 µM; in experiment [5], 1.4 µM; in experiment [6], 9.95 µM. In addition, the GI50 in experiment [7] was 1.42 µM; in [8] it was 5.5 µM; in experiment [9], 7.41 µM; in [10], 5.88 µM. Besides, the TGI stood at 5.64 µM in [1]; 4.53 µM in experiment [2]; 11.1 µM in [3]; 15.4 µM in experiment [4]; 4.38 µM in experiment [5]; 17.9 µM in experiment [6]. Further, the TGI in [7] came out at 3.6 µM; in experiment [8], 12.5 µM; in experiment [9], 15.1 µM; in experiment [10] it was 13.8 µM.

Take `O=C1c2ccccc2-c2c1c1ccccc1c(=O)n2CCCN1CCOCC1`: the GI50 is 24.9 µM in [1]; 12.1 µM in [2]; more than 44.4 µM in [3]; 3.67 µM in [4]; 25 µM in experiment [5]; 17.7 µM in experiment [6]. The GI50 in [7] is 4.81 µM; in [8] it was 19.5 µM; in experiment [9], 6.22 µM; in [10], 26.2 µM. The TGI was more than 100 µM in experiment [1]; 31.9 µM in [2]; more than 100 µM in experiment [3]; 14.9 µM in experiment [4]; more than 100 µM in experiment [5]; 45 µM in experiment [6]. Also, the TGI in experiment [7] was 13 µM; in experiment [8] it was 50.7 µM; in experiment [9], 18.7 µM; in experiment [10], more than 100 µM.

On to `O=C1OC(=O)C2C1C1(c3ccccc3)C(c3ccccc3)=C(c3ccccc3)C2(c2ccccc2)S1=O` (stereo not given), for which the GI50 in [1] is more than 100 µM; in experiment [2] it was more than 100 µM; in experiment [3], 53.1 µM; in experiment [4], more than 100 µM; in experiment [5], more than 100 µM; in experiment [6] it was more than 100 µM. The GI50 in experiment [7], in [8], in [9] and in [10] was more than 100 µM in each case. Also, the TGI in experiment [1], in experiment [2], in experiment [3], in [4], in experiment [5] and in experiment [6] was more than 100 µM each time. Further, the TGI in experiment [7], in experiment [8], in experiment [9] and in experiment [10] was more than 100 µM throughout.

For the compound `Cc1cc2c(F)c(Oc3ncnn4cc(OC[C@@H](C)OC(=O)[C@H](C)N)c(C)c34)ccc2[nH]1`, the GI50 in experiment [1] was 7.2 µM; in [2] it was 13.5 µM; in experiment [3] it was 5.94 µM; in experiment [4], 4.22 µM; in experiment [5] it was 10.7 µM; in [6], 12.4 µM. Further, the GI50 in experiment [7] was 16.6 µM; in experiment [8], 19.9 µM; in experiment [9], 10.3 µM; in [10], 8.86 µM. For the same compound, the TGI is 26.3 µM in experiment [1]; 27.1 µM in [2]; 23.7 µM in [3]; 18.5 µM in experiment [4]; 23.7 µM in experiment [5]; 26.7 µM in [6]. Besides, the TGI was determined as 33.5 µM in [7], 35.3 µM in experiment [8], 26.9 µM in experiment [9] and 23.3 µM in experiment [10].

Consider `CCN(CC)CCOc1ccc(/C=C2\CC3C4CC=C5C[C@@H](N6CCCC6)CC[C@]5(C)C4CC[C@]3(C)[C@H]2O)cc1OC` (stereo not given in full), for which the GI50 was 13.8 µM in [1]; 9.64 µM in [2]; 2.24 µM in experiment [3]; 3.08 µM in [4]; 5.06 µM in [5]; 27.2 µM in experiment [6]. Also, the GI50 is 8.14 µM in experiment [7], 9.64 µM in [8], 5.82 µM in experiment [9] and 7.91 µM in [10]. In addition, the TGI in [1] was 35.2 µM; in [2], 37.2 µM; in experiment [3], 6.34 µM; in experiment [4] it was 20.5 µM; in experiment [5] it was 13.6 µM; in experiment [6] it was more than 70.8 µM. Further, the TGI in experiment [7] was 32.7 µM; in experiment [8] it was more than 100 µM; in experiment [9], 15.3 µM; in experiment [10], more than 100 µM.

On to `C[C@]12CCC(=O)C(O)=C1CC[C@@H]1[C@@H]2CC[C@]2(C)C(=O)CC[C@@H]12`, for which the TGI in [1], in experiment [2], in experiment [3], in [4], in [5] and in experiment [6] was more than 100 µM throughout. Also, the TGI in experiment [7], in [8], in experiment [9] and in [10] was more than 100 µM in each case.

As to `CN(C)CCCNC(=O)c1cc(NC(=O)c2cc(NC(=O)c3cc(NC(=O)CCc4c[nH]c5ccccc45)cn3C)cn2C)cn1C`, the GI50 in experiment [1], in [2], in [3], in [4], in [5] and in [6] was more than 100 µM in each case. Also, the GI50 in experiment [7] is 67.1 µM; in [8] it was more than 100 µM; in [9], more than 100 µM; in experiment [10], more than 100 µM. Also, the TGI in experiment [1], in experiment [2], in experiment [3], in [4], in experiment [5] and in [6] was more than 100 µM throughout. Also, the TGI in experiment [7], in experiment [8], in experiment [9] and in [10] was more than 100 µM each time.

Consider `C[C@]12CC[C@@H]3c4ccc(O)cc4CC[C@H]3[C@@H]1CC[C@@H]2NS(=O)(=O)Cc1ccc(Cl)cc1`, for which the GI50 in experiment [1] was 3.26 µM; in [2], 3.5 µM; in experiment [3], 3.14 µM; in experiment [4], 3.33 µM; in experiment [5], 1.91 µM; in experiment [6], 3.02 µM. The GI50 is 2.13 µM in [7], 2.54 µM in [8], 2.97 µM in experiment [9] and 2.98 µM in [10]. Moreover, the TGI was 14.5 µM in experiment [1]; 14.9 µM in experiment [2]; 15.5 µM in experiment [3]; 11.8 µM in experiment [4]; 3.83 µM in [5]; 7.77 µM in experiment [6]. Further, the TGI in experiment [7] was found to be 7.24 µM; in experiment [8], 6.35 µM; in experiment [9], 8.14 µM; in [10] it was 11 µM.

As for `CC(=O)/C=C/c1ccc(C2CC(C)=Nc3c(ccc4c3C(=O)c3ccccc3C4=O)N2)cc1` (stereo not given), the TGI in experiment [1], in [2], in experiment [3], in [4], in [5] and in [6] was more than 100 µM throughout. Besides, the TGI in experiment [7], in [8], in [9] and in experiment [10] was more than 100 µM in each case.

`Cc1ccc2c(N)c(C(=O)N[C@H]3CCc4cc(N5CC6CCC(C5)N6)ccc4C3)sc2n1`: the GI50 in experiment [1] was 0.172 µM; in experiment [2], 0.434 µM; in experiment [3], 0.764 µM; in [4], 0.311 µM; in experiment [5] it was 0.547 µM; in [6] it was 0.422 µM. The GI50 in experiment [7] is 0.642 µM; in [8] it was 0.44 µM; in experiment [9] it was 0.291 µM; in experiment [10], 0.207 µM. Further, the TGI in experiment [1] is 1.31 µM; in experiment [2] it was 3.26 µM; in experiment [3], 3.42 µM; in [4] it was 2.15 µM; in experiment [5] it was 2.63 µM; in experiment [6], 2.99 µM. Besides, the TGI in experiment [7] was determined as 4.08 µM; in experiment [8], 1.29 µM; in [9], 2.36 µM; in [10], 2.03 µM.

As to `CCOC(=O)C1C(=O)c2ccccc2CN1Cc1ccccc1` (stereo not given), the TGI in experiment [1], in experiment [2], in experiment [3], in experiment [4], in experiment [5] and in [6] was more than 100 µM in each case. In addition, the TGI in experiment [7], in experiment [8], in [9] and in experiment [10] was more than 100 µM in each case.

Turning to `CC(=O)OCC1OC(n2c(=O)n(-c3ccccc3)c(=O)c3ccccc32)C(OC(C)=O)C(OC(C)=O)C1OC(C)=O` (stereo not given), the TGI in experiment [1], in experiment [2], in [3], in experiment [4], in experiment [5] and in experiment [6] was more than 100 µM in each case. Moreover, the TGI in [7], in [8], in experiment [9] and in experiment [10] was more than 100 µM in each case.

In the case of `CCOC(=O)Oc1c(OC)cc(C(=O)O[C@@H]2C[C@@H]3CN4CCc5c([nH]c6cc(OC)ccc56)[C@H]4C[C@@H]3[C@H](C(=O)OC)[C@H]2OC)cc1OC`, the GI50 in experiment [1] is 3.64 µM; in [2], 14.7 µM; in experiment [3], 2.23 µM; in experiment [4] it was 4.24 µM; in [5] it was 4.62 µM; in experiment [6] it was 14.3 µM. Besides, the GI50 was 3.64 µM in experiment [7], 12.1 µM in experiment [8], 11.7 µM in [9] and 3.41 µM in experiment [10]. Further, the TGI in experiment [1] stood at 15.1 µM; in experiment [2], 42.5 µM; in [3], 10.8 µM; in experiment [4], 15.1 µM; in experiment [5], 16.1 µM; in experiment [6] it was 27.4 µM. The TGI in experiment [7] amounted to 18.9 µM; in experiment [8], 28.3 µM; in experiment [9] it was 25.2 µM; in experiment [10], 14.2 µM.

As for `Cc1[nH]c(/C=C2\C(=O)Nc3ccc(F)cc32)c(C)c1C(=O)NC[C@H](O)CN1CCOCC1`, the GI50 in [1] was 1.03 µM; in experiment [2], 5.37 µM; in experiment [3] it was 3.54 µM; in experiment [4], 6.65 µM; in experiment [5] it was more than 10 µM; in [6], 2.95 µM. Besides, the GI50 in experiment [7] was 1.17 µM; in experiment [8], 2.16 µM; in experiment [9], 4.41 µM; in [10] it was 6.02 µM. In addition, the TGI was 5.43 µM in [1]; more than 10 µM in experiment [2]; more than 10 µM in [3]; more than 10 µM in experiment [4]; more than 10 µM in experiment [5]; more than 10 µM in [6]. Besides, the TGI in [7] is 6.84 µM; in experiment [8], 8.68 µM; in [9] it was more than 10 µM; in [10] it was more than 10 µM.

As to `C/C=C(\C)C(=O)O[C@H]1C=CC(=O)O[C@H]1CNC(=O)[C@H](C)O`, the GI50 is 16.8 µM in experiment [1]; 17.2 µM in [2]; 21.3 µM in experiment [3]; 15.7 µM in experiment [4]; 17 µM in experiment [5]; 52.1 µM in experiment [6]. In addition, the GI50 in [7] is 14.6 µM; in experiment [8] it was 20.1 µM; in [9], 23.9 µM; in [10], 31.1 µM. Also, the TGI in [1] is 39.3 µM; in [2] it was 31.8 µM; in experiment [3], 45.7 µM; in [4], 29.9 µM; in experiment [5] it was 30.9 µM; in experiment [6] it was more than 100 µM. Moreover, the TGI was 28.9 µM in experiment [7], 51 µM in experiment [8], 54 µM in experiment [9] and more than 100 µM in experiment [10].
